# Assays:
# [1] = molecular target: T1, Gonadotropin-releasing hormone receptor (Homo sapiens, UniProt P30968); experiment: Binding affinity was determined towards human gonadotropin-releasing hormone receptor
# T1 sequence (P30968 whole entry): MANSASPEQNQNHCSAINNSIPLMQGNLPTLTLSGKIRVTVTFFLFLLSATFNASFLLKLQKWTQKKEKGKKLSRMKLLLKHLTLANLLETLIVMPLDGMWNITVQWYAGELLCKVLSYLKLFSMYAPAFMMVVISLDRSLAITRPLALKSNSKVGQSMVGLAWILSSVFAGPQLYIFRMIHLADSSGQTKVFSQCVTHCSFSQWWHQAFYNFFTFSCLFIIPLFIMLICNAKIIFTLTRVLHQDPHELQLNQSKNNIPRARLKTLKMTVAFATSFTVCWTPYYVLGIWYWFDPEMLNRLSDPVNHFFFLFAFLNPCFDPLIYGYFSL
# [2] = molecular target: T1, Gonadotropin-releasing hormone receptor; experiment: Binding affinity was determined towards human Gonadotropin-releasing hormone receptor
Compound,Ki [1],Ki [2]
Cc1c(-c2ccc3c(c2)OCO3)c(=O)n(CCN(C)CCc2ccccn2)c(=O)n1Cc1c(F)cccc1F,38 nM,
Cc1c(-c2ccc(Oc3ccccc3)cc2)c(=O)n(CCN(C)CCc2ccccn2)c(=O)n1Cc1c(F)cccc1F,30 nM,
COc1cccc(-c2c(C)n(Cc3c(F)cccc3F)c(=O)n(CCNCCc3c[nH]cn3)c2=O)c1,3800 nM,
Cc1c(-c2ccccc2)c(=O)n(CCN(C)CCc2ccccn2)c(=O)n1Cc1c(F)cccc1F,400 nM,
CCc1c(-c2cccc(OC)c2)c(=O)n(CCN(C)CCc2ccccn2)c(=O)n1Cc1c(F)cccc1F,2200 nM,
COc1cccc(-c2c(C)n(Cc3c(F)cccc3F)c(=O)n(CCN3CCC[C@@H]3Cc3ccccn3)c2=O)c1,4800 nM,
Cc1c(-c2ccc3c(c2)OCCO3)c(=O)n(CCN(C)CCc2ccccn2)c(=O)n1Cc1c(F)cccc1F,24 nM,
COc1cccc(-c2c(C)n(Cc3c(F)cccc3F)c(=O)n(CCN3CCCC3c3ccccn3)c2=O)c1 (stereo unspecified),530 nM,
Cc1c(-c2cccc(O)c2)c(=O)n(CCN(C)CCc2ccccn2)c(=O)n1Cc1c(F)cccc1F,480 nM,
Cc1c(-c2cccc(OC(F)(F)F)c2)c(=O)n(CCN(C)CCc2ccccn2)c(=O)n1Cc1c(F)cccc1F,4800 nM,
COc1ccc(-c2c(C)n(Cc3c(F)cccc3F)c(=O)n(CCN(C)CCc3ccccn3)c2=O)cc1,230 nM,
COc1cccc(-c2c(C)n(Cc3c(F)cccc3F)c(=O)n(CCN3CCC[C@H]3Cc3ccccn3)c2=O)c1,130 nM,
COc1cccc(-c2cn(Cc3c(F)cccc3F)c(=O)n(CCN(C)CCc3ccccn3)c2=O)c1,1700 nM,
COc1cccc(-c2c(C)n(Cc3c(F)cccc3F)c(=O)n(CCNCCc3ccccc3)c2=O)c1,1100 nM,
COc1cccc(-c2c(C)n(Cc3c(F)cccc3F)c(=O)n(CCNCc3ccccc3)c2=O)c1,,240 nM
CCc1cccc(-c2c(C)n(Cc3c(F)cccc3F)c(=O)n(CCN(C)CCc3ccccn3)c2=O)c1,220 nM,
